# Laboratory results taken from PMC10925993, “6-Aryl-4-cycloamino-1,3,5-triazine-2-amines: synthesis, antileukemic activity, and 3D-QSAR modelling” (RSC Advances, 2024).
# Key:
# [1] = tested on: Jurkat T cells; experiment: Antiproliferative screening at 10 μM, MTS assay; type: cell-based, human; details: for viability at 10 µM: Homo sapiens, Jurkat T cells, 72 h after treatment, MTS, mean of three independent experiments, read-out: Cell viability (%)
# Experimental: The Jurkat T cell line was chosen for its reliability as a model for chemotherapeutic studies, particularly in T-cell leukemia.[13]
# An MTS (3-(4,5-dimethylthiazol-2-yl)-5-(3-carboxymethoxyphenyl)-2-(4-sulfophenyl)-2H-tetrazolium inner salt) assay[20] was used to assess the leukemic cell viability. […] A total of 2 × 10^3 cells per 100 μL cell culture media were seeded into each well of a 96-well plate and incubated for 24 h. Then, tested compounds or reference drugs [6-mercaptopurine (Merck Millipore, Germany), methotrexate (Merck Millipore, Germany) and cytarabine (Merck Millipore, Germany)] were added, followed by incubation for 72 h. […] The absorbance in each well was measured at 490 nm using a microplate reader (Tecan NanoQuant Infinite M200 Pro, Austria). The percentage of cell viability was estimated by comparing absorbance in wells with the treated and untreated (vehicle control) cells using the following formula: ODtreated/ODuntreated × 100%. All experiments were performed in triplicate and repeated in three independent experiments. The GI50 values were calculated using sigmoidal concentration-response curves generated by the GraphPad Prism 8 program.[21]
SMILES,melting point [°C],viability at 10 µM [1] [%],"Antiproliferative activity against Jurkat T cells (in words) ([1]; screening concentration 10 μM, 72 h)"
"COc1ccc(-c2nc(N)nc(N3CCN(C)CC3)n2)cc1OC [9{4,16}, 6-(3,4-Dimethoxyphenyl)-4-(4-methylpiperazino)-1,3,5-triazine-2-amine]",223 to 224,100,–
"COc1cc(-c2nc(N)nc(N3CCN(C)CC3)n2)cc(OC)c1OC [9{4,17}, 6-(3,4,5-Trimethoxyphenyl)-4-(4-methylpiperazino)-1,3,5-triazine-2-amine]",234 to 235,100,–
"CN(C)c1ccc(-c2nc(N)nc(N3CCc4ccccc4C3)n2)cc1 [9{6,8}, 6-[4-(N,N-Dimethylamino)phenyl]-4-(3,4-dihydroisoquinolin-2(1H)-yl)-1,3,5-triazine-2-amine]",201 to 202,100,–
"Nc1nc(-c2ccc(OCc3ccccc3)cc2)nc(N2CCc3ccccc3C2)n1 [9{6,15}, 6-(4-(Benzyloxy)phenyl)-4-(3,4-dihydroisoquinolin-2(1H)-yl)-1,3,5-triazine-2-amine]",143 to 144,59,–
"COc1cc(-c2nc(N)nc(N3CCc4ccccc4C3)n2)cc(OC)c1OC [9{6,17}, 6-(3,4,5-Trimethoxyphenyl)-4-(3,4-dihydroisoquinolin-2(1H)-yl)-1,3,5-triazine-2-amine]",198 to 199,96,–
"Nc1nc(-c2cccs2)nc(N2CCc3ccccc3C2)n1 [9{6,18}, 4-(3,4-Dihydroisoquinolin-2(1H)-yl)-6-(2-thienyl)-1,3,5-triazine-2-amine]",170 to 171,78,inactive against Jurkat T cells
"COc1ccc(-c2nc(N)nc(N3CCc4ccccc43)n2)cc1 [9{7,9}, 6-(4-Methoxyphenyl)-4-(indolin-1-yl)-1,3,5-triazine-2-amine]",219 to 220,85,–
"Nc1nc(-c2ccc(C(F)(F)F)cc2)nc(N2CCc3ccccc32)n1 [9{7,11}, 6-[4-(Trifluoromethyl)phenyl]-4-(indolin-1-yl)-1,3,5-triazine-2-amine]",227 to 228,53,–
"Nc1nc(-c2ccc(OC(F)(F)F)cc2)nc(N2CCc3ccccc32)n1 [9{7,12}, 6-[4-(Trifluoromethoxy)phenyl]-4-(indolin-1-yl)-1,3,5-triazine-2-amine]",195 to 196,73,–
"COc1ccc(-c2nc(N)nc(N3CCc4ccccc43)n2)cc1OC [9{7,16}, 6-(3,4-Dimethoxyphenyl)-4-(indolin-1-yl)-1,3,5-triazine-2-amine]",183 to 184,67,–
